Results published in patent US20120014912A1, “PALATABLE PHARMACEUTICAL COMPOSITION” (VERTEX PHARMACEUTICALS INCORPORATED, priority 2010, published 2012).

System: HCV
Test: Clinical trials, antiviral activity
Format: in vivo, Hepatitis C virus

**Q.** How did the antiviral activity turn out when `CCC[C@H](NC(=O)[C@@H]1[C@H]2CCC[C@H]2CN1C(=O)[C@@H](NC(=O)[C@@H](NC(=O)c1cnccn1)C1CCCCC1)C(C)(C)C)C(=O)C(=O)NC1CC1` [VX-950] was run?
**A.** has shown antiviral activity
